# Test results published in PubChem BioAssay AID1963966 (Molecular Pharmacology Branch, DTP, NCI, 2024).
# Tested on: 935938-334-R-J1-PDC spheroids with HUVEC/MSC, viability
# Assay: Anticancer human tumor 935938-334-R-J1-PDC patient-derived small intestine adenocarcinoma cell line growth inhibition [PI3K]
# Details: for IC50: curve of first compound; for viability, T/C: stronger effect = lower value
# Source text: Combinatorial screen of targeted agents with the PI3K inhibitors inavolisib, alpelisib, duvelisib, and copanlisib in multi-cell type tumor spheroids
# A high-throughput screen of multi-cell type tumor spheroids was designed to identify active combinations of targeted small molecules and PI3K pathway inhibitors. Complex spheroids include a stromal component modeled by human endothelial cells (HUVEC) and fibroblasts modeled by human mesenchymal stem cells (MSCs). The concentration ranges selected for each drug and investigational agent were based upon clinically achievable concentrations if the clinical Cmax of the agent was known.
# Compounds. The drugs and investigational agents: inavolisib (NSC800729), alpelisib (NSC765974), duvelisib (NSC772469), copanlisib (NSC816437), ipatasertib (NSC767898), afuresertib (NSC778305), talazoparib (NSC767125), sapanisertib (NSC764658), selumetinib (NSC741078), tovorafenib (DAY101, NSC766906), vemurafenib (NSC761431), ravoxertinib (NSC781343), sotorasib (NSC818433), MRTX1133 (NSC 836407), abemaciclib (NSC 768073), palbociclib (NSC758247), venetoclax (NSC 766270), SY5609 (NSC837396), enzalutamide (NSC755605), and darolutamide (NSC825331), were obtained from the National Cancer Institute (NCI) Developmental Therapeutics Program Chemical Repository. The FDA-approved anticancer drug set is available from the NCI Developmental Therapeutics Program. […] The stock solutions were prepared in dimethyl sulfoxide (DMSO, Sigma-Aldrich, St. Louis, MO, cat. D2650) at 800-fold the tested concentration and stored at -70 degrees C prior to their use. All drugs and investigational agents were tested over a range starting from a high concentration at or near the clinical Cmax and decreasing in half-log increments. If the clinical Cmax for an agent had not been determined, the highest concentration tested was 10 microM.
# Cell Culture. All cells were maintained in an incubator at 37 degrees C and 5% CO2 with 95% humidity. The PDC lines were cultured according to standard operating procedures established by the NCI PDMR (https://pdmr.cancer.gov/sops/default.htm). All PDCs were thawed and cultured in Matrigel-coated flasks prepared with a working solution of 1X Ham's F-12 nutrient mix, without supplementation (Invitrogen, Waltham, MA, cat. 11765054), 100 U/mL penicillin-streptomycin (Invitrogen, cat. 15140122), and 2.5% Matrigel (Corning Inc., Corning, NY, cat. 354248) for the first three passages. The 354836-022-R-J1-PDC, 475296-252-R-J1-PDC, and 997726-040-R-J2-PDC lines were cultured in 6A media, which includes advanced DMEM/F-12 (Thermo Fisher Scientific, cat. 12634028), 10 mM HEPES (Thermo Fisher Scientific, cat. 15630080), 1X GlutaMAX supplement (Thermo Fisher Scientific, cat. 35050061), 0.1 mg/mL primocin (InvivoGen, San Diego, CA, cat. ant-pm-2), 10% defined fetal bovine serum, heat inactivated (HyClone Laboratories Inc., Logan, UT, cat. SH30070.03HI), 50% L-WRN conditioned media (ATCC, cat. CRL-3276), 1.25 mM N-Acetyl-L-cysteine (Sigma-Aldrich, cat. A9165), 10 mM nicotinamide (Sigma-Aldrich, cat. N0636), 1X B-27 supplement (Thermo Fisher Scientific, cat. 17504044), 1X N-2 supplement (Thermo Fisher Scientific, cat. 17502048), and 10 microM Y-27632 dihydrochloride (Tocris Bioscience, Bristol, United Kingdom, cat. 1254). The 624824-186-R-J2-PDC line was cultured in 6C/Colon 1B media, which includes all 6A media components plus 50 ng/mL human EGF recombinant protein (Thermo Fisher Scientific, cat. PHG0311). […]
# 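Note: compound exposure lasted seven days before viability was read.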
# 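Throughout, for viability, T/C: percent of vehicle DMSO treated spheroid viability so 100% = untreated.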
structure (smiles),measurement,setting,value
Cn1ncc(Cl)c1-c1cc(C(=O)NC(CN)Cc2cccc(F)c2)sc1Cl (centres undefined) + COc1c(OCCCN2CCOCC2)ccc2c3n(c(=NC(=O)c4cnc(N)nc4)nc12)CCN3,IC50,second compound 0.00316 µM,1680 nM
same,IC50,second compound 0.01 µM,1180 nM
same,IC50,second compound 0.0316 µM,1040 nM
same,IC50,second compound 0.1 µM,57.2 nM
same,IC50,second compound 0.316 µM,< 31.6 nM
same,IC50,second compound 1 µM,< 31.6 nM
same,"viability, T/C","second compound 0.00316 µM, first compound 0.0316 µM",103%
same,"viability, T/C","second compound 0.00316 µM, first compound 0.1 µM",114%
same,"viability, T/C","second compound 0.00316 µM, first compound 0.316 µM",60.6%
same,"viability, T/C","second compound 0.00316 µM, first compound 1 µM",63.7%
same,"viability, T/C","second compound 0.00316 µM, first compound 3.16 µM",49.3%
same,"viability, T/C","second compound 0.00316 µM, first compound 10 µM",32.8%
same,"viability, T/C","second compound 0.01 µM, first compound 0.0316 µM",78.7%
same,"viability, T/C","second compound 0.01 µM, first compound 0.1 µM",86.6%
same,"viability, T/C","second compound 0.01 µM, first compound 0.316 µM",65.5%
same,"viability, T/C","second compound 0.01 µM, first compound 1 µM",50.9%
same,"viability, T/C","second compound 0.01 µM, first compound 3.16 µM",41.1%
same,"viability, T/C","second compound 0.01 µM, first compound 10 µM",28.5%
same,"viability, T/C","second compound 0.0316 µM, first compound 0.0316 µM",70.7%
same,"viability, T/C","second compound 0.0316 µM, first compound 0.1 µM",71.3%
same,"viability, T/C","second compound 0.0316 µM, first compound 0.316 µM",68%
same,"viability, T/C","second compound 0.0316 µM, first compound 1 µM",50.4%
same,"viability, T/C","second compound 0.0316 µM, first compound 3.16 µM",30.6%
same,"viability, T/C","second compound 0.0316 µM, first compound 10 µM",25%
same,"viability, T/C","second compound 0.1 µM, first compound 0.0316 µM",55%
same,"viability, T/C","second compound 0.1 µM, first compound 0.1 µM",43%
same,"viability, T/C","second compound 0.1 µM, first compound 0.316 µM",41.7%
same,"viability, T/C","second compound 0.1 µM, first compound 1 µM",37.8%
same,"viability, T/C","second compound 0.1 µM, first compound 3.16 µM",25.3%
same,"viability, T/C","second compound 0.1 µM, first compound 10 µM",27%
same,"viability, T/C","second compound 0.316 µM, first compound 0.0316 µM",35.5%
same,"viability, T/C","second compound 0.316 µM, first compound 0.1 µM",30.2%
same,"viability, T/C","second compound 0.316 µM, first compound 0.316 µM",30.9%
same,"viability, T/C","second compound 0.316 µM, first compound 1 µM",28.6%
same,"viability, T/C","second compound 0.316 µM, first compound 3.16 µM",26.8%
same,"viability, T/C","second compound 0.316 µM, first compound 10 µM",20.9%
same,"viability, T/C","second compound 1 µM, first compound 0.0316 µM",33.5%
same,"viability, T/C","second compound 1 µM, first compound 0.1 µM",26.9%
same,"viability, T/C","second compound 1 µM, first compound 0.316 µM",34.2%
same,"viability, T/C","second compound 1 µM, first compound 1 µM",34.5%
same,"viability, T/C","second compound 1 µM, first compound 3.16 µM",32.6%
same,"viability, T/C","second compound 1 µM, first compound 10 µM",21.6%
Cn1cnc2c(F)c(Nc3ccc(Br)cc3Cl)c(C(=O)NOCCO)cc21 + CC(Nc1ccc2c(c1)OCCn1cc(N3C(=O)OCC3C(F)F)nc1-2)C(N)=O,IC50,second compound 0.00316 µM,49.6 nM
same,IC50,second compound 0.01 µM,29.9 nM
same,IC50,second compound 0.0316 µM,65.4 nM
same,IC50,second compound 0.1 µM,27.4 nM
same,IC50,second compound 0.316 µM,18.3 nM
same,IC50,second compound 1 µM,< 9.49 nM
same,"viability, T/C","second compound 0.00316 µM, first compound 0.00949 µM",86.3%
same,"viability, T/C","second compound 0.00316 µM, first compound 0.03 µM",57.2%
same,"viability, T/C","second compound 0.00316 µM, first compound 0.0949 µM",39.2%
same,"viability, T/C","second compound 0.00316 µM, first compound 0.3 µM",30.1%
same,"viability, T/C","second compound 0.00316 µM, first compound 0.949 µM",20.9%
same,"viability, T/C","second compound 0.00316 µM, first compound 3 µM",16.8%
same,"viability, T/C","second compound 0.01 µM, first compound 0.00949 µM",71.2%
same,"viability, T/C","second compound 0.01 µM, first compound 0.03 µM",50.9%
same,"viability, T/C","second compound 0.01 µM, first compound 0.0949 µM",33.8%
same,"viability, T/C","second compound 0.01 µM, first compound 0.3 µM",26.5%
same,"viability, T/C","second compound 0.01 µM, first compound 0.949 µM",26.5%
same,"viability, T/C","second compound 0.01 µM, first compound 3 µM",17.9%
same,"viability, T/C","second compound 0.0316 µM, first compound 0.00949 µM",79.1%
same,"viability, T/C","second compound 0.0316 µM, first compound 0.03 µM",65.3%
same,"viability, T/C","second compound 0.0316 µM, first compound 0.0949 µM",38.8%
same,"viability, T/C","second compound 0.0316 µM, first compound 0.3 µM",34.3%
same,"viability, T/C","second compound 0.0316 µM, first compound 0.949 µM",23.8%
same,"viability, T/C","second compound 0.0316 µM, first compound 3 µM",15.8%
same,"viability, T/C","second compound 0.1 µM, first compound 0.00949 µM",58%
same,"viability, T/C","second compound 0.1 µM, first compound 0.03 µM",46.4%
same,"viability, T/C","second compound 0.1 µM, first compound 0.0949 µM",39.7%
same,"viability, T/C","second compound 0.1 µM, first compound 0.3 µM",23.1%
same,"viability, T/C","second compound 0.1 µM, first compound 0.949 µM",16.8%
same,"viability, T/C","second compound 0.1 µM, first compound 3 µM",18.3%
same,"viability, T/C","second compound 0.316 µM, first compound 0.00949 µM",56.4%
same,"viability, T/C","second compound 0.316 µM, first compound 0.03 µM",45.3%
same,"viability, T/C","second compound 0.316 µM, first compound 0.0949 µM",22.7%
same,"viability, T/C","second compound 0.316 µM, first compound 0.3 µM",19%
same,"viability, T/C","second compound 0.316 µM, first compound 0.949 µM",16.8%
same,"viability, T/C","second compound 0.316 µM, first compound 3 µM",12.7%
same,"viability, T/C","second compound 1 µM, first compound 0.00949 µM",44.3%
same,"viability, T/C","second compound 1 µM, first compound 0.03 µM",31.3%
same,"viability, T/C","second compound 1 µM, first compound 0.0949 µM",20.7%
same,"viability, T/C","second compound 1 µM, first compound 0.3 µM",17.4%
same,"viability, T/C","second compound 1 µM, first compound 0.949 µM",17.4%
same,"viability, T/C","second compound 1 µM, first compound 3 µM",12%
